What was measured:
HL-60(TB) = experiment: NCI 60 human tumor cell line screen (SRB): HL-60(TB); assay type: cell-based; details: Leukemia, 48 hours, read-out: GI50 values (μM conc.)
Protocol: (§1) The in vitro anticancer activity studies for these chalcone analogues were carried out at the National Cancer Institute, USA.
(§2) The chalcone compounds have been tested at NCI, USA, against sixty human tumor cell lines derived from nine cancer types (leukemia, non-small cell lung cancer, colon cancer, CNS cancer, melanoma cancer, ovarian cancer, renal cancer, prostate cancer and breast cancer). For these compounds results are expressed as growth inhibition (GI50) values as per NCI protocol.
(§3) We describe here the development and implementation of a pilot-scale, in vitro, anticancer drug screen utilizing a panel of 60 human tumor cell lines organized into subpanels representing leukemia, melanoma, and cancers of the lung, colon, kidney, ovary, and central nervous system. The ultimate goal of this disease-oriented screen is to facilitate the discovery of new compounds with potential cell line-specific and/or subpanel-specific antitumor activity. In the current screening protocol, each cell line is inoculated onto microtiter plates, then preincubated for 28 hours. Subsequently, test agents are added in five 10-fold dilutions and the culture is incubated for an additional 48 hours. For each test agent, a dose-response profile is generated. End-point determinations of the cell viability or cell growth are performed by in situ fixation of cells, followed by staining with a protein-binding dye, sulforhodamine B (SRB). The SRB binds to the basic amino acids of cellular macromolecules; the solubilized stain is measured spectrophotometrically to determine relative cell growth or viability in treated and untreated cells.

K-562 = experiment: NCI 60 human tumor cell line screen (SRB): K-562; assay type: cell-based; details: K562, K-562, Leukemia, 48 hours, read-out: GI50 values (μM conc.)
Protocol: as §1, §2
as §3, with “For each test agent, a dose-response profile is generated. End-point determinations of the cell viability or cell growth are performed by in situ fixation of cells, followed by staining with a protein-binding dye, sulforhodamine B (SRB).” left out

Compound	GI50 (HL-60(TB))	melting point	GI50 (K-562)
COc1cc(C(=O)/C=C/c2cccnc2Nc2ccccc2)cc(OC)c1OC [6a, (E)-3-(2-(Phenylamino)pyridin-3-yl)-1-(3,4,5-trimethoxyphenyl)prop-2-en-1-one]	1.52 µM	125 to 128 °C	–
COc1cc(C(=O)/C=C/c2cccnc2Nc2ccc(Cl)cc2)cc(OC)c1OC [6ax, (E)-3-(2-(4-Chlorophenylamino)pyridin-3-yl)-1-(3,4,5-trimethoxyphenyl)prop-2-en-1-one]	1.59 µM	–	–
COc1ccc(Nc2ncccc2/C=C/C(=O)c2cc(OC)c(OC)c(OC)c2)cc1 [6h, (E)-3-(2-(4-Methoxyphenylamino)pyridin-3-yl)-1-(3,4,5-trimethoxyphenyl)prop-2-en-1-one]	–	–	0.78 µM
COc1cc(Nc2ncccc2/C=C/C(=O)c2cc(OC)c(OC)c(OC)c2)cc(OC)c1OC [6v, (E)-1-(3,4,5-Trimethoxyphenyl)-3-(2-(3,4,5-trimethoxyphenylamino)pyridin-3-yl)prop-2-en-1-one]	8 µM	–	–
COc1ccc(C(=O)/C=C/c2cccnc2Nc2cc(OC)c(OC)c(OC)c2)cc1 [6z, (E)-1-(4-Methoxyphenyl)-3-(2-(3,4,5-trimethoxyphenylamino)pyridin-3-yl)prop-2-en-1-one]	1.27 µM	–	–
COc1cc(/C=C/C(=O)c2cccnc2Nc2ccc(F)cc2)cc(OC)c1OC [7f, (E)-1-(2-(4-Fluorophenylamino)pyridin-3-yl)-3-(3,4,5-trimethoxyphenyl)prop-2-en-1-one]	2.4 µM	–	–

Source: patent US9006451B1, “2-anilinonicotinyl based chalcones useful as potential anticancer agents and process for preparation thereof” (Council of Scientific and Industrial Research, priority 2013, dated 2015)
